This passage reports IC50 results from patent publication US8980911B2, “Heterocyclic compounds as protein kinase inhibitors” (Daiichi Sankyo Company, Limited, priority 2011, dated 2015).

Some results are limits rather than exact numbers.

Type in all cases: biochemical
One assay addresses T1, JAK1 (Homo sapiens, UniProt P23458).
T1 construct: JAK1 (aa 850-1154) and TYK2 (aa 871-1187) are expressed with an N-terminally fused GST-tag; GST (N); purchased Carna Bioscience, Inc; host or cells: baculovirus expression system
In words: In vitro enzyme assay (cell-free HTRF kinase assay), JAK1. To be noted: catalytic domain aa 850-1154, GST-tag; ATP 60 μM, SRCtide 400 nM, reaction 120 min. The method, boiled down: (§1)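 Catalytic-domain human kinases (baculovirus-expressed; JAK1 GST-tagged aa 850-1154, JAK2/JAK3 His-tagged) reacted with biotin-SRCtide and ATP in HEPES pH 7.5, MgCl2, DTT buffer, 1% DMSO, at room temperature. EDTA stop (10 mM final), then ULight-streptavidin/Eu-anti-phosphotyrosine overnight at 4 °C; HTRF 665/615 ratio gave IC50.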
Background: In TR-FRET formats the signal depends on donor and acceptor labels being close together.

The next assay deals with T2, JAK2 (Homo sapiens, UniProt O60674).
T2 construct: All enzymes only contain the catalytic domain; His (N); purchased Carna Bioscience, Inc; host or cells: baculovirus expression system
T2 sequence (O60674 849-1124 limits assumed): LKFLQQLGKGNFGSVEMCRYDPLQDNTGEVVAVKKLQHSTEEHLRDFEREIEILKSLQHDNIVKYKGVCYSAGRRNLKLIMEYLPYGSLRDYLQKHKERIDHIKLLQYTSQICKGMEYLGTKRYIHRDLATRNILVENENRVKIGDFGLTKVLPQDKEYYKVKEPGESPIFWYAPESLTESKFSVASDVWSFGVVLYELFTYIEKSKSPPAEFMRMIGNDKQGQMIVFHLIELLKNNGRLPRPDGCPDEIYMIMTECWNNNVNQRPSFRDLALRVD
The assay can be described thus: In vitro enzyme assay (cell-free HTRF kinase assay), JAK2. To be noted: catalytic domain, His-tag; ATP 10 μM, SRCtide 25 nM, reaction 30 min. In outline:
as §1

The next assay deals with T3, JAK3 (Homo sapiens, UniProt P52333).
T3 construct: All enzymes only contain the catalytic domain; His (N); purchased Carna Bioscience, Inc; host or cells: baculovirus expression system
T3 sequence (P52333 822-1111 limits assumed): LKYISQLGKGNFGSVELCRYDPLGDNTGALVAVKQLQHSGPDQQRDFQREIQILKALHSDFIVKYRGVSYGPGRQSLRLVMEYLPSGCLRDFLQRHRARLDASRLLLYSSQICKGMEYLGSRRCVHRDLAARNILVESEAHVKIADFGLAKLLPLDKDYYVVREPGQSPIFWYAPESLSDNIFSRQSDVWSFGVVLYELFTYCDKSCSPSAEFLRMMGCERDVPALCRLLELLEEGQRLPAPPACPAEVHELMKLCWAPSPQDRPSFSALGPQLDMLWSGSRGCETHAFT
The assay can be described thus: In vitro enzyme assay (cell-free HTRF kinase assay), JAK3. Conditions: catalytic domain, His-tag; ATP 3 μM, SRCtide 100 nM, reaction 30 min. The method, boiled down: as §1

T1 sequence (P23458 850-1154): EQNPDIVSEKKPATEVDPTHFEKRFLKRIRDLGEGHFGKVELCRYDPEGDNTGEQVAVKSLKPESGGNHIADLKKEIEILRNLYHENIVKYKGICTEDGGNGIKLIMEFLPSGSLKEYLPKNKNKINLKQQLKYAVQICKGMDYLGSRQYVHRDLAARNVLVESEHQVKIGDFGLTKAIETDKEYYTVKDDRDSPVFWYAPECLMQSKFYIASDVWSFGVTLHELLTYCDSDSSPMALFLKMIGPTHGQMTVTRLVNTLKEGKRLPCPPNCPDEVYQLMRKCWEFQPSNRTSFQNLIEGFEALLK

A word on the IC50: it is the concentration that inhibits the measured activity by half. The low end stands for greater potency, the high end for weaker potency. Consider `O=C(Nc1nccc2c1ccn2C(=O)c1c(Cl)cc(CNCCCN2CCOCC2)cc1Cl)C1CC1` [Compound No. 166, N-{1-[2,6-Dichloro-4-({[3-(morpholin-4-yl)propyl]amino}methyl)benzoyl]-1H-pyrrolo[3,2-c]pyridin-4-yl}cyclopropanecarboxamide], for which the IC50 against JAK1 is less than 500 nM; at JAK2 it was less than 1000 nM; at JAK3, less than 500 nM.
For `O=C(Nc1nccc2c1ccn2C(=O)c1c(Cl)cc(CNCCCO)cc1Cl)C1CC1` [Compound No. 167, N-[1-(2,6-Dichloro-4-{[(3-hydroxypropyl)amino]methyl}benzoyl)-1H-pyrrolo[3,2-c]pyridin-4-yl]cyclopropanecarboxamide], the concentration for half-maximal inhibition (IC50) at JAK1, against JAK2 and at JAK3 was less than 500 nM each time.
`O=C(NCCn1cccc1)c1cc(Cl)c(C(=O)n2ccc3c(NC(=O)C4CC4)nccc32)c(Cl)c1` [Compound No. 168, 3,5-Dichloro-4-({4-[(cyclopropylcarbonyl)amino]-1H-pyrrolo[3,2-c]pyridin-1-yl}carbonyl)-N-[2-(1H-pyrrol-1-yl)ethyl]benzamide]: the IC50 was less than 1000 nM on JAK1, less than 1000 nM against JAK2 and less than 500 nM against JAK3.
Consider `O=C(NCCc1cccnc1)c1cc(Cl)c(C(=O)n2ccc3c(NC(=O)C4CC4)nccc32)c(Cl)c1` [Compound No. 169, 3,5-Dichloro-4-({4-[(cyclopropylcarbonyl)amino]-1H-pyrrolo[3,2-c]pyridin-1-yl}carbonyl)-N-[2-(pyridin-3-yl)ethyl]benzamide], for which the concentration for half-maximal inhibition (IC50) against JAK1 was less than 1000 nM; against JAK2 it was less than 500 nM; on JAK3, less than 1000 nM.
For the compound `O=C(NCC1CC1)c1cc(Cl)c(C(=O)n2ccc3c(NC(=O)C4CC4)nccc32)c(Cl)c1` [Compound No. 170, 3,5-Dichloro-4-({4-[(cyclopropylcarbonyl)amino]-1H-pyrrolo[3,2-c]pyridin-1-yl}carbonyl)-N-(cyclopropylmethyl)benzamide], the IC50 is less than 500 nM against JAK1, less than 1000 nM on JAK2 and less than 1000 nM at JAK3.
As to `O=C(NCC1CCCNC1)c1cc(Cl)c(C(=O)n2ccc3c(NC(=O)C4CC4)nccc32)c(Cl)c1` (stereo not drawn) [Compound No. 171, 3,5-Dichloro-4-({4-[(cyclopropylcarbonyl)amino]-1H-pyrrolo[3,2-c]pyridin-1-yl}carbonyl)-N-(piperidin-3-ylmethyl)benzamide], the IC50 on JAK1 was less than 500 nM; on JAK2, less than 100 nM; against JAK3, less than 100 nM.
